In PubChem BioAssay (NCI):
“And” between values parts separate entries of the source, which are not always exact repeats. Identical values can stand only once.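 Where inhibition never reached the appropriate level, the endpoint shown equals the highest concentration tested. Otherwise, values were interpolated linearly from a five-concentration, 48-hour dose response in 96-well plates. The concentration for 50% growth inhibition is given as GI50. TGI marks complete inhibition of growth.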

Key:
Test in all cases: growth of human tumour cells (NCI), 48 h
M19-MEL melanoma = test system: M19-MEL melanoma
DMS 273 small cell lung = test system: DMS 273 small cell lung
UACC-62 melanoma = test system: UACC-62 melanoma
SK-MEL-5 melanoma = test system: SK-MEL-5 melanoma
K-562 leukemia = test system: K-562 leukemia
SNB-78 CNS = test system: SNB-78 CNS
HL-60(TB) leukemia = test system: HL-60(TB) leukemia
COLO 205 colon = test system: COLO 205 colon
BT-549 breast = test system: BT-549 breast
MCF7 breast = test system: MCF7 breast

SMILES	TGI (M19-MEL melanoma)	TGI (DMS 273 small cell lung)	TGI (UACC-62 melanoma)	TGI (SK-MEL-5 melanoma)	TGI (K-562 leukemia)	TGI (SNB-78 CNS)	TGI (HL-60(TB) leukemia)	TGI (COLO 205 colon)	GI50 (UACC-62 melanoma)	GI50 (SK-MEL-5 melanoma)	GI50 (K-562 leukemia)	GI50 (BT-549 breast)	TGI (BT-549 breast)	GI50 (HL-60(TB) leukemia)	GI50 (MCF7 breast)	TGI (MCF7 breast)	GI50 (COLO 205 colon)	GI50 (DMS 273 small cell lung)	GI50 (SNB-78 CNS)
ClC1CCC2OOC1O2 (stereo not drawn)	> 100 µM	> 100 µM	> 100 µM	> 100 µM	> 100 µM	> 100 µM	> 100 µM	> 100 µM											
COc1ccc(NC(=O)C(=O)C2CNC(=O)NC2=O)c(OC)c1 (stereo not drawn)		> 100 µM	> 100 µM	> 100 µM	> 100 µM	> 100 µM	> 100 µM	> 100 µM											
COC(=O)C1=CN=C(C(=O)OC)NN1	> 100 µM		> 100 µM	> 100 µM	> 100 µM		> 100 µM	> 100 µM											
CC(=O)OCc1cc(OC(C)=O)cnc1COC(C)=O	> 100 µM	> 100 µM	> 100 µM	> 100 µM	> 100 µM		> 100 µM	> 100 µM											
COc1ccc(C(c2ccc(C(C)C)cc(=O)c2O)c2ccc3cccnc3c2O)cc1 (stereo not drawn)	2.54 µM	2.08 µM	4.63 µM	2.41 µM	> 100 µM	23.2 µM	6.23 µM	19.3 µM											
C[C@@H](CO)OCOCc1ccccc1	> 100 µM	> 100 µM	> 100 µM	> 100 µM	> 100 µM	> 100 µM	> 100 µM	> 100 µM											
Cc1cccc2c(N=Nc3ccc(S(N)(=O)=O)cc3)c(O)[nH]c12			> 25 µM	> 25 µM	> 25 µM		> 25 µM	> 25 µM	> 25 µM	> 25 µM	> 25 µM	> 25 µM	> 25 µM	> 25 µM	> 25 µM	> 25 µM	> 25 µM		
COc1cc(/C=C2\CN(C)C/C(=C\c3cc(OC)c(OC)c(OC)c3)C2=O)cc(OC)c1OC			0.383 µM	0.434 µM	> 100 µM		1.67 µM	0.461 µM	0.186 µM	0.204 µM	0.334 µM	0.295 µM	0.923 µM	0.34 µM	0.317 µM	1.83 µM	0.23 µM		
N.N.N.N.N.N.[I-].[Os]		> 100 µM	> 100 µM	> 100 µM	> 100 µM	> 100 µM	> 100 µM	> 100 µM	> 100 µM	> 100 µM	> 100 µM			> 100 µM			> 100 µM	> 100 µM	> 100 µM
Cc1ccc([N+](=O)[O-])cc1NC(=O)C(=O)Cc1occc(=O)c1O	> 100 µM		> 100 µM	> 100 µM	> 100 µM		> 100 µM	> 100 µM											
O=C1C(=O)c2ccccc2-c2ccccc21			3.03 µM	2.79 µM	4.02 µM		4.11 µM	4.28 µM	1.52 µM	1.39 µM	1.01 µM	1.66 µM	3.07 µM	1.56 µM	1.67 µM	3.8 µM	2.02 µM		
O=C(Nc1ccccc1)Nc1cccc(-n2cc(-c3ccncc3)c(-c3ccc(O)c(Cl)c3)n2)c1			15.5 µM	3.35 µM	13.4 µM		5.36 µM	21 µM	3.73 µM	1.78 µM	3.59 µM	3.29 µM	12.7 µM	2.32 µM	2.75 µM	17.8 µM	4.95 µM		
CC1(C)OC(C(N)=O)=C(C(N)=O)O1	> 100 µM	> 100 µM	> 100 µM		> 100 µM		> 100 µM	> 100 µM											
O=C(/C=C\c1cccc2ccccc12)c1cccs1	22.4 µM	17.9 µM	21.5 µM	26.1 µM	8.79 µM	34.5 µM	15.6 µM	29.3 µM											
Cc1c2c(nn1C(=O)c1nn(-c3ccc(Cl)cc3)cc1O)-c1ccccc1CC2					> 100 µM		1.12 µM	4.22 µM	0.0507 µM	0.313 µM	0.0273 µM	0.0306 µM	> 100 µM	0.0507 µM	0.115 µM	> 100 µM	0.323 µM		
CNNCc1ccc(C(=O)NC(C)C)cc1	> 500 µM	> 500 µM	393 µM and > 500 µM	> 500 µM	> 500 µM	> 500 µM	> 500 µM	> 500 µM	> 500 µM	> 500 µM	> 500 µM		> 500 µM			> 500 µM			
N#CC(=S)Nc1ccc(Cl)c(Cl)c1			34.1 µM	> 51.3 µM	46.9 µM		40.9 µM	49.5 µM					> 55.1 µM	11.8 µM		> 73.4 µM			
O=C(O)CC(Nc1ccccc1)C(=O)O (stereo not drawn)			> 100 µM	> 100 µM	> 100 µM		> 100 µM	> 100 µM					> 100 µM			> 100 µM			
CN(C)C(=O)/N=c1\ss/c(=N\C(=S)N(C)C)n1-c1ccccc1	> 100 µM	> 100 µM	> 100 µM	> 100 µM	> 56.1 µM	> 100 µM	44.8 µM	> 100 µM	1.92 µM					6.59 µM			0.306 µM	30 µM	
O=C(O)c1ccc(O)c(N=Nc2cc(S(=O)(=O)O)c3ccccc3c2O)c1	> 100 µM	> 100 µM		> 100 µM	> 100 µM	> 100 µM	> 100 µM	> 100 µM											
